In patent US12503452B2 (Curza Global, LLC, priority 2019, dated 2025):
Counter-ions that a name gives are not always drawn. Like-named read-outs stand apart in the source and are kept apart here.

Key:
[1] = system: E. coli S30 extract (bacterial protein synthesis); assay: E. coli S30 extract coupled transcription-translation luciferase assay (inhibition of bacterial protein synthesis); type: biochemical; conditions: read-out: S30 IC50 (μM/% inhib.)
In short: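 Cell-free coupled transcription-translation in E. coli S30 circular-DNA extract, with pBESTluc plasmid as template and complete amino acid mix. Eight 2-fold compound dilutions were incubated with the extract 1 h at 37 °C, chilled, then luciferase luminescence was read. % inhibition was taken relative to no-inhibitor wells; no-DNA wells gave background.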

[2] = biological target: Rabbit Reticulocyte Lysate (eukaryotic protein synthesis); assay: Rabbit reticulocyte lysate luciferase assay (inhibition of eukaryotic protein synthesis); type: biochemical; conditions: read-out: Rabbit reticulocyte IC50 (μM/% inhib.)
In short: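 Nuclease-treated rabbit reticulocyte lysate translating luciferase control RNA, with complete amino acids, was incubated at 30° C. for 90 minutes with 2-fold serial compound dilutions. Luminescence was measured after adding luciferase reagent. % inhibition was relative to water controls, with no-RNA wells as background.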

A. baumannii (Ab) = assay: Broth microdilution minimum inhibitory concentration (MIC); type: cell-based; conditions: Acinetobacter baumannii, read-out: Ab + bicarb MIC
In short: (§1)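 Following CLSI M07-A9 with minor changes, growth medium was cation-adjusted Mueller-Hinton broth, alone or supplemented with bicarbonate (6.25 or 25 mM) or heat-inactivated human serum up to 50%. Each compound was tested over eight two-fold dilutions against 5×10^4 CFU per well.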

E. coli (Ec) = assay: as above; type: cell-based; conditions: Escherichia coli, read-out: E. coli + bicarb MIC
In short: as §1

E. faecalis (Ef) = assay: as above; type: cell-based; conditions: Enterococcus faecalis, read-out: Ef + bicarb MIC
In short: as §1

P. aeruginosa (Pa) = assay: as above; type: cell-based; conditions: Pseudomonas aeruginosa, read-out: Pa MIC + bicarb
In short: as §1

S. aureus (Sa) = assay: as above; type: cell-based; conditions: Staphylococcus aureus, read-out: Sa + bicarb MIC
In short: as §1

[3] = class by IC50 or % inhibition @ 1 μM
[4] = A. baumannii, growth medium with sodium bicarbonate
[5] = E. coli, growth medium with sodium bicarbonate
[6] = E. faecalis, growth medium with sodium bicarbonate
[7] = P. aeruginosa, growth medium with sodium bicarbonate
[8] = S. aureus, growth medium with sodium bicarbonate
[9] = A. baumannii, growth medium supplemented with sodium bicarbonate
[10] = E. coli, growth medium supplemented with sodium bicarbonate
[11] = E. faecalis, growth medium supplemented with sodium bicarbonate
[12] = P. aeruginosa, growth medium supplemented with sodium bicarbonate
[13] = S. aureus, growth medium supplemented with sodium bicarbonate

| SMILES | IC50 [1, 3] [µM] | IC50 [2, 3] [µM] | MIC (A. baumannii (Ab); [4]) [µg/mL] | MIC (E. coli (Ec); [5]) [µg/mL] | MIC (E. faecalis (Ef); [6]) [µg/mL] | MIC (P. aeruginosa (Pa); [7]) [µg/mL] | MIC (S. aureus (Sa); [8]) [µg/mL] | MIC (A. baumannii (Ab); [9]) [µg/mL] | MIC (E. coli (Ec); [10]) [µg/mL] | MIC (E. faecalis (Ef); [11]) [µg/mL] | MIC (P. aeruginosa (Pa); [12]) [µg/mL] | MIC (S. aureus (Sa); [13]) [µg/mL] | MIC (A. baumannii (Ab)) [µg/mL] | MIC (E. coli (Ec)) [µg/mL] | MIC (E. faecalis (Ef)) [µg/mL] | MIC (P. aeruginosa (Pa)) [µg/mL] | MIC (S. aureus (Sa)) [µg/mL] | IC50 ([1]; % inhibition @ 1 μM) [µM] | IC50 ([2]; % inhibition @ 1 μM) [µM] |
| --- | --- | --- | --- | --- | --- | --- | --- | --- | --- | --- | --- | --- | --- | --- | --- | --- | --- | --- | --- |
| Cc1cc(-n2ccc(NC(=O)N3CCN(C(=O)C(C)(C)N)CC3)nc2=O)ccc1CN(CC1CC1)C1CCC(N)CC1 (stereo not shown) [Compound 270] | < 0.5 | > 1 | < 8 | < 8 | < 8 | 8 to 32 | < 8 |  |  |  |  |  |  |  |  |  |  |  |  |
| CC(C)(N)C(=O)N1CCN(C(=O)Nc2ccn(-c3ccc(CN[C@H]4CC[C@H](N)CC4)cc3)c(=O)n2)CC1 [Compound 117] | < 0.5 | > 1 |  |  |  |  |  | > 32 | < 8 | < 8 | > 32 | < 8 |  |  |  |  |  |  |  |
| CC(C)(N)C(=O)N1CCN(C(=O)Nc2ccn(-c3ccc(CCN[C@H]4CC[C@@H](N)CC4)cc3)c(=O)n2)CC1 [Compound 179] | < 0.5 | > 1 | > 32 | < 8 | 8 to 32 | > 32 | < 8 |  |  |  |  |  |  |  |  |  |  |  |  |
| CCN(Cc1ccc(-n2ccc(NC(=O)N3CCN(C(=O)C(C)(C)N)CC3)nc2=O)cc1)[C@H]1CC[C@H](N)C1 [Compound 125] | < 0.5 | > 1 |  |  |  |  |  | > 32 | < 8 | < 8 | > 32 | < 8 |  |  |  |  |  |  |  |
| CN(Cc1ccc(-n2ccc(NC(=O)N3CCN(C(=O)C(C)(C)N)CC3)nc2=O)cc1Cl)C1CCC(N)CC1 (stereo not shown) [Compound 272] | < 0.5 | > 1 | < 8 | < 8 | < 8 | 8 to 32 | < 8 |  |  |  |  |  |  |  |  |  |  |  |  |
| CC(C)(N)C(=O)N1CCN(C(=O)Nc2ccn(-c3ccc(CCN4CCC[C@@H](CN)C4)cc3)c(=O)n2)CC1 [Compound 25] | 0.5 to 1 | > 1 |  |  |  |  |  | > 32 | < 8 | > 32 | > 32 | < 8 |  |  |  |  |  |  |  |
| CC(Cc1ccc(-n2ccc(NC(=O)N3CCN(C(=O)C(C)(C)N)CC3)nc2=O)cc1)N(C)C[C@H]1CCC[C@H](N)C1 (stereo partly shown) [Compound 279] | > 1 | > 1 | > 32 | < 8 | 8 to 32 | > 32 | < 8 |  |  |  |  |  |  |  |  |  |  |  |  |
| CC(Cc1ccc(-n2ccc(NC(=O)N3CCN(C(=O)C(C)(C)N)CC3)nc2=O)cc1)N(C)[C@H]1CC[C@@H](N)C1 (stereo partly shown) [Compound 149] | < 0.5 | > 1 |  |  |  |  |  | > 32 | < 8 | 8 to 32 | > 32 | < 8 |  |  |  |  |  |  |  |
| CC(C)(N)C(=O)N1CCN(C(=O)Nc2ccn(-c3cccc(CCN4CC[C@H](CN)C4)c3)c(=O)n2)CC1 (stereo in doubt) [Compound 24] | < 0.5 | > 1 |  |  |  |  |  | > 32 | 8 to 32 | > 32 | > 32 | 8 to 32 |  |  |  |  |  |  |  |
| CCN(C(C)Cc1ccc(-n2ccc(NC(=O)N3CCN(C(=O)C(C)(C)N)CC3)nc2=O)cc1)C1CCC(CN)CC1 (stereo not shown) [Compound 154] | < 0.5 | > 1 |  |  |  |  |  | > 32 | < 8 | < 8 | > 32 | < 8 |  |  |  |  |  |  |  |
| CCN(Cc1ccc(-n2ccc(NC(=O)N3CCN(C(=O)CNC)CC3)nc2=O)cc1)C1CCC(N)CC1 (stereo not shown) [Compound 313, hydrochloride salt] | 0.5 to 1 | > 1 |  |  |  |  |  |  |  |  |  |  | > 32 | < 8 | > 32 | > 32 | < 8 |  |  |
| CC(C)(N)C(=O)N1CCN(C(=O)Nc2ccn(-c3ccc(CN4CC[C@H](CN)C4)cc3)c(=O)n2)CC1 [Compound 242] | < 0.5 | > 1 | > 32 | < 8 | 8 to 32 | > 32 | < 8 |  |  |  |  |  |  |  |  |  |  |  |  |
| CC(C)(N)C(=O)N1CCN(C(=O)Nc2ccn(-c3cc(F)c(CN[C@H]4CC[C@H](N)CC4)c(F)c3)c(=O)n2)CC1 [Compound 353, hydrochloride salt] |  |  |  |  |  |  |  |  |  |  |  |  | > 32 | < 8 | > 32 | > 32 | 8 to 32 | < 0.5 | > 1 |
